PubChem BioAssay AID1845207 (Molecular Pharmacology Branch, DTP, NCI, 2023)
pIC50: −log10 of the molar value.

Test system: NCI-H1876 tumor spheroid viability
Test: Anticancer human tumor NCI-H1876 cell line growth inhibition;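 note: spheroids exposed to compounds for seven days before the viability read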;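 for viability, T/C: percent of DMSO vehicle control viability so 100% = vehicle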
Conditions: spheroids with HUVEC and MSC; for pIC50: curve of first compound; for viability, T/C: stronger effect = lower value
In short: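 Complex spheroids of malignant cells with endothelial cells and mesenchymal stem cells; agents alone or combined, from near clinical Cmax (or 10 microM if unknown) down in half-log steps, 0.25% DMSO final.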

CC1COCCN1c1cc(-c2ccnn2C)c2ccnc(-c3ccn[nH]3)c2n1 (stereo not given) + COc1cc2c(cc1O)CCNC21CSC2c3c(OC(C)=O)c(C)c4c(c3C(COC1=O)N1C(O)C3Cc5cc(C)c(OC)c(O)c5C(C21)N3C)OCO4
pIC50 (second compound 30 pM): > 7.50
pIC50 (second compound 94.9 pM): > 7.50
pIC50 (second compound 0.0003 µM): > 7.50
pIC50 (second compound 0.000949 µM): > 7.50
pIC50 (second compound 0.003 µM): > 7.50
viability, T/C (second compound 30 pM, first compound 0.0316 µM): 30.7%
viability, T/C (second compound 30 pM, first compound 0.1 µM): 17.9%
viability, T/C (second compound 30 pM, first compound 0.316 µM): 11.3%
viability, T/C (second compound 30 pM, first compound 1 µM): 4.58%
viability, T/C (second compound 30 pM, first compound 3.16 µM): 3.01%
viability, T/C (second compound 30 pM, first compound 10 µM): 2.83%
viability, T/C (second compound 94.9 pM, first compound 0.0316 µM): 17.4%
viability, T/C (second compound 94.9 pM, first compound 0.1 µM): 10.3%
viability, T/C (second compound 94.9 pM, first compound 0.316 µM): 6.18%
viability, T/C (second compound 94.9 pM, first compound 1 µM): 3.39%
viability, T/C (second compound 94.9 pM, first compound 3.16 µM): 2.3%
viability, T/C (second compound 94.9 pM, first compound 10 µM): 2.27%
viability, T/C (second compound 0.0003 µM, first compound 0.0316 µM): 5.4%
viability, T/C (second compound 0.0003 µM, first compound 0.1 µM): 4.29%
viability, T/C (second compound 0.0003 µM, first compound 0.316 µM): 2.95%
viability, T/C (second compound 0.0003 µM, first compound 1 µM): 2.33%
viability, T/C (second compound 0.0003 µM, first compound 3.16 µM): 2.39%
viability, T/C (second compound 0.0003 µM, first compound 10 µM): 2.2%
viability, T/C (second compound 0.000949 µM, first compound 0.0316 µM): 2.56%
viability, T/C (second compound 0.000949 µM, first compound 0.1 µM): 2.32%
viability, T/C (second compound 0.000949 µM, first compound 0.316 µM): 1.67%
viability, T/C (second compound 0.000949 µM, first compound 1 µM): 1.48%
viability, T/C (second compound 0.000949 µM, first compound 3.16 µM): 1.48%
viability, T/C (second compound 0.000949 µM, first compound 10 µM): 2.04%
viability, T/C (second compound 0.003 µM, first compound 0.0316 µM): 0.92%
viability, T/C (second compound 0.003 µM, first compound 0.1 µM): 1.05%
viability, T/C (second compound 0.003 µM, first compound 0.316 µM): 0.72%
viability, T/C (second compound 0.003 µM, first compound 1 µM): 0.9%
viability, T/C (second compound 0.003 µM, first compound 3.16 µM): 0.88%
viability, T/C (second compound 0.003 µM, first compound 10 µM): 0.28%
